US9618524B2, “Method, composition, isolation and identification of a plaque particle and related biomarker” (Plaxgen Inc., priority 2012, dated 2017)

What was measured:
Assay in all cases: Mass spectroscopy proteomics, semi-quantitative binding affinity of serum proteins (plaqueproteome, Table 2)
Conditions in all cases: higher number = stronger affinity
[1] = biological target: T1, Abeta-42 plaque particles (Homo sapiens, UniProt P05067)
T1 construct: Abeta 1-42
Protocol: Next to isolate serum derived Abeta-42 plaque particles, the plasma or serum samples obtained from AD subjects were first centrifuged at 5,000 rpm for 5 min and the supernatants were transferred to new centrifuge tubes. Next, the supernatants were diluted in PBS to make 50% of the serum and plasma samples and used for incubation with Abeta-42 plaque oligomers/aggregates. Each assay was performed in 1 mL reaction (800 μL of 50% plasma or serum) and 200 μL (30 μg) of the Abeta-42 aggregates and the mixtures were incubated at 37° C. for 1 hr. To the mixture Thioflavin S dye (120 μg) was added and the sample was incubated for additional 30 min at 37° C. After the incubation, the mixture was directly used for sample acquisition using flow cytometer (FACS ARIA II, BD Biosciences, San Jose, Calif.). After initial detection of Abeta-42 plaque particles in the acquisition blot, gates were drawn in fluorescent dot blot to separately sort and isolate fluorescently labeled Abeta-42 particles.
(§1) For preparing trypsin digested peptide sequences, the isolated plaque particles were centrifuged at 10000 rpm for 5 min and the pellet containing plaque particles was resuspended in 100 μl PBS buffer. Stock solutions of digestion buffer (Ammonium Biocarbonate 50 mM), reducing buffer (DDT 100 mM) and alkylation buffer (lodoaceamide 100 mM) were prepared and stored at −20° C. for up to two months. For trypsin digestion, 100 μl of each plaque particles (2000 of Abeta-42, cholesterol, Tau and alpha-synuclein) were precipitated using cold acetone −80° C. by adding 4X's the volume. The samples were placed on dry ice for 10 min with intermittent vortex. Next, the samples were centrifuged at 4° C. at 10000 G for 10 min. Top layer of acetone was carefully removed from the tube with care not to disturb the plaque particles pellet. The samples were speed-vac for 10 min to ensure all acetone has been boiled away. The plaque particles pellet were reconstituted with 15 μl 8M Urea 100 mM Ammonium bicarbonate stock and 20 μl protease max solution. The protease max solution (Promega, Madison, Wis.) was prepared from stock by adding 60 μl 50 mM Ammonium bicarbonate and used for 3 solution digests (20 μl each). […] The tubes were incubated at 55° C. for 30 minutes. The tubes were then removed and brought to the room temperature followed by addition of 3.2 μl of 1M acrylamide and incubated at room temperature for 30 minutes. To the sample, 63 μL of 50 mM Ammonium bicarbonate was added for a final volume of 98 μl and 2 μl of trypsin (10 μg, Trypsin/Lys C Mix). After mixing the solution with pipet the samples were incubated at 37° C. overnight. After the overnight digest, the tryptic digest were quenched and acidified by adding 10 μl of 50% formic acid/water stock dilution. The samples were centrifuged at 10000 G for 2 minutes and purified using stage tip and used for MS/Mass analysis.
(§2) All MS/MS samples were analyzed using Sequest (Thermo Fisher Scientific, San Jose, Calif., USA; version 1.0). Sequest was set up to search the SUMS_uniprot_Human database (35847 entries) assuming the digestion enzyme strict trypsin. Sequest was searched with a fragment ion mass tolerance of 1.00 Da and a parent ion tolerance of 20 PPM. Propionamide of cysteine was specified in Sequest as a fixed modification. Oxidation of methionine and phospho of serine, threonine and tyrosine were specified in Sequest as variable modifications.
Scaffold (version Scaffold_4.2.1, Proteome Software Inc., Portland, Oreg.) was used to validate MS/MS based peptide and protein identifications. […] Protein probabilities were assigned by the Protein Prophet algorithm (Nesvizhskii, Al et al 2003). […] Proteins sharing significant peptide evidence were grouped into clusters. Proteins were annotated with GO terms from NCBI (downloaded Jan. 17, 2014).

[2] = test system: High Density cholesterol (Chl Large) plaque particles; set-up: species or system human
Protocol: (§3) The goal was to isolate plaque particles synthesized in the bio-fluids in a relatively pure form to enable their subsequent use for identification of components that contribute to the plaque formation. In order to isolate cholesterol plaque particles, the plasma or serum samples obtained from atherosclerotic subjects were first centrifuged at 5,000 rpm for 5 min and the supernatants were transferred to new centrifuge tubes. Next, the supernatants were diluted in PBS to make 50% of the serum and used for incubation with cholesterol oligomers/aggregates. Each assay was performed in 1 mL reaction (800 μL of 50% plasma or serum) and 200 μL (30 μg) of the Cholesterol aggregates and the mixtures were incubated at 37° C. for 1 hr After the incubation, the mixture was directly used for sample acquisition using flow cytometer (FACS ARIA II, BD Biosciences, San Jose, Calif.). […] In order to isolate these fractions, three sets of gates were drawn in the acquisition blot to separately sort and isolate High density or high complex cholesterol particles, Low density or low complex cholesterol particles and both High and low density cholesterol particles together.
as §1, §2
(§4) Scaffold (version Scaffold_4.2.1, Proteome Software Inc., Portland, Oreg.) was used to validate MS/MS based peptide and protein identifications. […] Protein probabilities were assigned by the Protein Prophet algorithm (Nesvizhskii, Al et al 2003).

[3] = test system: Low density cholesterol (Chl small) plaque particles; set-up: species or system human
Protocol: as §3, §1, §2, §4

[4] = biological target: T2, alpha-synuclein plaque particles (Homo sapiens, UniProt P37840)
T2 construct: 140 amino acids polypeptide
Protocol: To prepare oligomers/aggregates of human alpha-synuclein (140 amino acids polypeptide), 1 mg of the recombinant alpha-synuclein protein was suspended in 1 mL of PBS and the sample was incubated at 37° C. for 2 hrs. After incubation, all the samples were centrifuged for 5 min. at 5000 rpm to remove precipitate, if any, and the supernatant containing oligomers/aggregates were used in vitro plaque particles formation assay. For detecting alpha-synuclein plaque particles Thioflavin S (Ex/Em=430 nm/550 nm) amyloid binding fluorescent dye (10 μg) was used.
Similarly, to isolate alpha-synuclein plaque particles, diluted plasma or serum samples obtained from AD subjects were used for incubation with alpha-synuclein plaque oligomers/aggregates. Each assay was performed in 1 mL reaction (800 μL of 50% plasma or serum) and 200 μL (30 μg) of the alpha-synuclein aggregates and the mixtures were incubated at 37° C. for 1 hr. To the mixture Thioflavin S dye (120 μg) was added and the sample was incubated for additional 30 min at 37° C. After the incubation, the mixture was directly used for sample acquisition using flow cytometer (FACS ARIA II, BD Biosciences, San Jose, Calif.). After initial detection of alpha-synuclein plaque particles, gates were drawn in the acquisition blot to separately sort and isolate fluorescently labeled alpha-synuclein particles.
as §1, §2
Scaffold (version Scaffold_4.2.1, Proteome Software Inc., Portland, Oreg.) was used to validate MS/MS based peptide and protein identifications.

Tau plaque particles = test system: Tau plaque particles; set-up: species or system human
Protocol: For Tau-74 (74-102) (Exon 3/Insert 2 domain) preparation, 1 mg of Tau-74 was suspended in 1 mL of PBS and the sample was incubated at 37° C. for 2 hrs. Similarly for preparing Tau-275 (275-305) (Repeat 2 domain) 1 mg of the peptide was suspended in 1 mL of PBS and the sample was incubated at 37° C. for 2 hrs. After incubation, all the samples were centrifuged for 5 min. at 5000 rpm to remove precipitate, if any, and the supernatant containing oligomers/aggregates were used for in vitro amyloid plaque particles formation assay. For detecting Tau plaque particles, Thioflavin S (Ex/Em=430 nm/550 nm) amyloid binding fluorescent dye (10 μg) was used in the assay.
Next, to isolate Tau plaque particles, as performed for Abeta-42 and Abeta-28 plaque particles isolation, diluted serum samples were used for incubation separately with Tau-45, Tau-74 and Tau-275 oligomers/aggregates. Each assay was performed in 1 mL reaction (800 μL of 50% plasma or serum) and 200 μL (30 μg) of each Tau aggregates and the mixtures were incubated at 37° C. for 1 hr. To the each mixture Thioflavin S dye (120 μg) was added and the sample was incubated for additional 30 min at 37° C. After the incubation, each sample was directly used for sample acquisition using flow cytometer (FACS ARIA II, BD Biosciences, San Jose, Calif.). After initial detection of Tau plaque particles, gates were drawn in the acquisition blot to separately sort and isolate fluorescently labeled Tau plaque particles.
as §1, §2

| Substance | Semi-quantitative analysis of proteins binding to different plaque particles: Abeta-42 [1] | Semi-quantitative analysis of proteins binding to different plaque particles: Chl Large [2] | Semi-quantitative analysis of proteins binding to different plaque particles: Chl small [3] | Semi-quantitative analysis of proteins binding to different plaque particles: Synuclein [4] | Semi-quantitative analysis of proteins binding to different plaque particles: Tau (Tau plaque particles) |
| --- | --- | --- | --- | --- | --- |
| Cluster of Ig lambda-2 chain C regions | 9 | 5 | 9 | 8 | 11 |
| Cluster of Nucleolar RNA helicase 2 | 2 | 0 | 0 | 0 | 0 |
| Cluster of Platelet factor 4 | 2 | 1 | 0 | 1 | 1 |
| Coagulation factor XII | 0 | 0 | 0 | 1 | 1 |
| Complement C1q subcomponent subunit B | 0 | 1 | 0 | 2 | 2 |
| Complement C1q subcomponent subunit C | 0 | 1 | 1 | 1 | 2 |
| Complement C1s subcomponent | 0 | 3 | 1 | 1 | 2 |
| Complement C3 | 63 | 73 | 67 | 71 | 85 |
| Complement C4-A | 28 | 44 | 36 | 37 | 50 |
| Complement C4-B | 32 | 44 | 35 | 37 | 52 |
| Complement C5 | 0 | 5 | 3 | 4 | 1 |
